Results published in article PMC3961306, “Comparison of the Cancer Gene Targeting and Biochemical Selectivities of All Targeted Kinase Inhibitors Approved for Clinical Use” (PLoS ONE, 2014).

Columns and labels:
Test in all cases: Kinase profiling in a biochemical assay panel (mobility shift assays and ELISA), %-inhibition at 1 μM; selectivity entropy
[1] = target: panel of more than 300 wild-type and mutant kinases (313 kinase panel) (Homo sapiens, UniProt P10721, V560G)
[2] = target: panel of more than 300 wild-type and mutant kinases (313 kinase panel) (Homo sapiens, UniProt Q9HBH9); conditions: kinase MNK2; 1 μM
[3] = target: panel of more than 300 wild-type and mutant kinases (313 kinase panel) (Homo sapiens, UniProt P06493); conditions: kinase CDC2/CycB1; 1 μM compound
[4] = target: panel of more than 300 wild-type and mutant kinases (313 kinase panel) (Homo sapiens, UniProt Q13153); conditions: kinase PAK1; 1 μM
[5] = target: T1, panel of more than 300 wild-type and mutant kinases (313 kinase panel) (Homo sapiens, UniProt O14757); conditions: kinase CHK1; 1 μM compound
T1 sequence (O14757 1-476): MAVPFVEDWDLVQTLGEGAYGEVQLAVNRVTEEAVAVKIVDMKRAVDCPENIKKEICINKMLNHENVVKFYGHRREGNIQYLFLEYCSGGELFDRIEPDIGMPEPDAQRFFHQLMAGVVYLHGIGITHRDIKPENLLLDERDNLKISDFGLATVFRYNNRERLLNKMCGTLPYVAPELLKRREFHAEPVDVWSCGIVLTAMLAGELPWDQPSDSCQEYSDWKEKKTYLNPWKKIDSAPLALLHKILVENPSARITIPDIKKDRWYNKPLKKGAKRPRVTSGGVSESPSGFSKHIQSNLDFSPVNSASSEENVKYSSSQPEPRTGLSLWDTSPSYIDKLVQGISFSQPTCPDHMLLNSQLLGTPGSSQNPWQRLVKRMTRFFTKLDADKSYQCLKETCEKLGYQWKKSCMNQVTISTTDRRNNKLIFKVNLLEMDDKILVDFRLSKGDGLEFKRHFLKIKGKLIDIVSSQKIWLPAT

[6] = target: panel of more than 300 wild-type and mutant kinases (313 kinase panel) (Homo sapiens, UniProt Q16644); conditions: kinase MAPKAPK3; compound at 1 μM
Chain of panel of more than 300 wild-type and mutant kinases (313 kinase panel) (Homo sapiens, UniProt Q16644) (Q16644 whole entry, stated change not applied): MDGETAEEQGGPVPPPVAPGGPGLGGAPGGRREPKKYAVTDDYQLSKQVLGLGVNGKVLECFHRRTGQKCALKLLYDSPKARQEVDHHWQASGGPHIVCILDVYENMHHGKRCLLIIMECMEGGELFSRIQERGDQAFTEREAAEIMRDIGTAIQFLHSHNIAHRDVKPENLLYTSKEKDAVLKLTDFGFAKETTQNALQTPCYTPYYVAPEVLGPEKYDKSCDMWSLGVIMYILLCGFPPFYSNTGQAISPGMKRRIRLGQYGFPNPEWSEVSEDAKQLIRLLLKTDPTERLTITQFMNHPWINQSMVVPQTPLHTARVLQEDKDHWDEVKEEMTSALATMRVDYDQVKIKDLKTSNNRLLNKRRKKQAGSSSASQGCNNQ

[7] = target: panel of more than 300 wild-type and mutant kinases (313 kinase panel) (Homo sapiens, UniProt P22607, K650M); conditions: kinase FGFR3(K650M); compound at 1 μM
Chain of panel of more than 300 wild-type and mutant kinases (313 kinase panel) (Homo sapiens, UniProt P22607, K650M) (P22607 23-806 K650M): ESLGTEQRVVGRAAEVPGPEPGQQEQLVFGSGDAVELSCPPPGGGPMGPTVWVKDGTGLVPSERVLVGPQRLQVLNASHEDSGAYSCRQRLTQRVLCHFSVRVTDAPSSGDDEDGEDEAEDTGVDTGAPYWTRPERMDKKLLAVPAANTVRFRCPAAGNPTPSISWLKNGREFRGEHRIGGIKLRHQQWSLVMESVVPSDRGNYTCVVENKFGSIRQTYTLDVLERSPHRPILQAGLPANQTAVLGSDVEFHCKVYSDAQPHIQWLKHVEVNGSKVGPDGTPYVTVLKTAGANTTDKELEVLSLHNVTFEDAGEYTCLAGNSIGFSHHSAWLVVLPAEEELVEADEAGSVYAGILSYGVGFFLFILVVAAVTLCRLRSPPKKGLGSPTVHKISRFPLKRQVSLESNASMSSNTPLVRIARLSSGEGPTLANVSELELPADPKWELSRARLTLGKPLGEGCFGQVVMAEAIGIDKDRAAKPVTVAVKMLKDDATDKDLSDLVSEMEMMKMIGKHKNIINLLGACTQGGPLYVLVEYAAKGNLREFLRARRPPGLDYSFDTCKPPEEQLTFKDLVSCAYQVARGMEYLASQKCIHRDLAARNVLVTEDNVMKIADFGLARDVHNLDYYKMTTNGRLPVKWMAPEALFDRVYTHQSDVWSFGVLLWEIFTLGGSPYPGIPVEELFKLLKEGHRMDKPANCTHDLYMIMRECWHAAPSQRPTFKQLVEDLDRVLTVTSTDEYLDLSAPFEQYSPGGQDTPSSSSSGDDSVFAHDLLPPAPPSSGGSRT

[8] = target: T2, panel of more than 300 wild-type and mutant kinases (313 kinase panel) (Homo sapiens, UniProt Q13237); conditions: kinase CGK2; 1 μM compound
T2 sequence (Q13237 1-762): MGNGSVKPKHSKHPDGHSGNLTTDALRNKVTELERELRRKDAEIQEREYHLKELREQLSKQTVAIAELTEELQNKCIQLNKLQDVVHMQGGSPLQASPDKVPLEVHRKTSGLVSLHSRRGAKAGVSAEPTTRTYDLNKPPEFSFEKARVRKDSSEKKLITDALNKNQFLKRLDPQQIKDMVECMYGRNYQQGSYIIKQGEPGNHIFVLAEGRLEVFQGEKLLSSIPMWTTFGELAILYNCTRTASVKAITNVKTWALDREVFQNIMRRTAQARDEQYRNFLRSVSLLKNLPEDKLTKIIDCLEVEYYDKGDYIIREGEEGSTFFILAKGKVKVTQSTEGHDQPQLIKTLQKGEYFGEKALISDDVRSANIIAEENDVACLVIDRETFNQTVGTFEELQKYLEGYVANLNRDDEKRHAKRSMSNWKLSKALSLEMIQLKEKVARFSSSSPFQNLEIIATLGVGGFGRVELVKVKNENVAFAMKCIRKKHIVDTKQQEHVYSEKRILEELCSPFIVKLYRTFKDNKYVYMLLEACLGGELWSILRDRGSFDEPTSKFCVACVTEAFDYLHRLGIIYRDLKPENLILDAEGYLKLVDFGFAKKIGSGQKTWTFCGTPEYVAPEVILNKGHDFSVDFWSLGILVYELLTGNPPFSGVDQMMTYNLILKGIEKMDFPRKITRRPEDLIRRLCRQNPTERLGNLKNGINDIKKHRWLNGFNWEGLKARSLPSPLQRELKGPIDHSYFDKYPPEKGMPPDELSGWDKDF

[9] = target: panel of more than 300 wild-type and mutant kinases (313 kinase panel) (Homo sapiens, UniProt P16234, T674I)
Chain of panel of more than 300 wild-type and mutant kinases (313 kinase panel) (Homo sapiens, UniProt P16234, T674I) (P16234 24-1089 T674I): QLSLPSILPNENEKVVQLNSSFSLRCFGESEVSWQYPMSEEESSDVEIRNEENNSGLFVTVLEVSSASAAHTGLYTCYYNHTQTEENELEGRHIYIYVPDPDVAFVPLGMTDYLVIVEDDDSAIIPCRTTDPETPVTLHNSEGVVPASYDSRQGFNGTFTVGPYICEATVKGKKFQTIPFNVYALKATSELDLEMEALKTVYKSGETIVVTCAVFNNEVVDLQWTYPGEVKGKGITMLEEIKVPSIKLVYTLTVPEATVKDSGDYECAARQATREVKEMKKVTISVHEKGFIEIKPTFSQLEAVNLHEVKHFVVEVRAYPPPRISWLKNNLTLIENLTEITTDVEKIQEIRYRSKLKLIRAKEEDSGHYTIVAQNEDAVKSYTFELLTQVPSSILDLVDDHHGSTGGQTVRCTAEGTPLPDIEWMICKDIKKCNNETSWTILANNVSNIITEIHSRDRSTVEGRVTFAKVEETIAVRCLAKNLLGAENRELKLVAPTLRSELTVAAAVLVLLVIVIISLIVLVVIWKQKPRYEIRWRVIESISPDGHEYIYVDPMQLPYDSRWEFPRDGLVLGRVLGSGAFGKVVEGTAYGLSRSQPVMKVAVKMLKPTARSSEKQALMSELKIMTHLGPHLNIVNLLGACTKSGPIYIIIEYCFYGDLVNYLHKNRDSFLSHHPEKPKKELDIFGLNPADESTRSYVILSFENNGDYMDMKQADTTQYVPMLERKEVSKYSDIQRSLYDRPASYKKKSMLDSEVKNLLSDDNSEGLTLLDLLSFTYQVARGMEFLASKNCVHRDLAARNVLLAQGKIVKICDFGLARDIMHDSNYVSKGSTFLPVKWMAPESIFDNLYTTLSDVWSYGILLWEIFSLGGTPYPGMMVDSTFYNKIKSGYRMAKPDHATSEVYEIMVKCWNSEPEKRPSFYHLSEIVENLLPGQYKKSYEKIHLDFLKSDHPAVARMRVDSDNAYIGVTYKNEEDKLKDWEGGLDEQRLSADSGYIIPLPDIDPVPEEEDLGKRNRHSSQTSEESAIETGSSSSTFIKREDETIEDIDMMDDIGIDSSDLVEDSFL

[10] = target: panel of more than 300 wild-type and mutant kinases (313 kinase panel) (Homo sapiens, UniProt Q16539)
Chain of panel of more than 300 wild-type and mutant kinases (313 kinase panel) (Homo sapiens, UniProt Q16539) (Q16539 whole entry, change not shown): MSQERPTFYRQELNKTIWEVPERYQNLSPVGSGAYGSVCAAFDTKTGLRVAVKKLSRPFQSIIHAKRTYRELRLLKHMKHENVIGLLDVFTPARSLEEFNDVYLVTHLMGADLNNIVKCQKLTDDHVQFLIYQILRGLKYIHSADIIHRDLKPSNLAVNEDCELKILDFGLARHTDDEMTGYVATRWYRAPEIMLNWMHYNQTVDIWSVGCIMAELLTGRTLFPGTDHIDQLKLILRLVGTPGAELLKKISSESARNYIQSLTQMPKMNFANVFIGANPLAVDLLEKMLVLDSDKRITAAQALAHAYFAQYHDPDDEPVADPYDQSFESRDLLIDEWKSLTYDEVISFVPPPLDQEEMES

[11] = target: panel of more than 300 wild-type and mutant kinases (313 kinase panel) (Homo sapiens, UniProt Q04759)
Chain of panel of more than 300 wild-type and mutant kinases (313 kinase panel) (Homo sapiens, UniProt Q04759) (Q04759 whole entry, change not shown): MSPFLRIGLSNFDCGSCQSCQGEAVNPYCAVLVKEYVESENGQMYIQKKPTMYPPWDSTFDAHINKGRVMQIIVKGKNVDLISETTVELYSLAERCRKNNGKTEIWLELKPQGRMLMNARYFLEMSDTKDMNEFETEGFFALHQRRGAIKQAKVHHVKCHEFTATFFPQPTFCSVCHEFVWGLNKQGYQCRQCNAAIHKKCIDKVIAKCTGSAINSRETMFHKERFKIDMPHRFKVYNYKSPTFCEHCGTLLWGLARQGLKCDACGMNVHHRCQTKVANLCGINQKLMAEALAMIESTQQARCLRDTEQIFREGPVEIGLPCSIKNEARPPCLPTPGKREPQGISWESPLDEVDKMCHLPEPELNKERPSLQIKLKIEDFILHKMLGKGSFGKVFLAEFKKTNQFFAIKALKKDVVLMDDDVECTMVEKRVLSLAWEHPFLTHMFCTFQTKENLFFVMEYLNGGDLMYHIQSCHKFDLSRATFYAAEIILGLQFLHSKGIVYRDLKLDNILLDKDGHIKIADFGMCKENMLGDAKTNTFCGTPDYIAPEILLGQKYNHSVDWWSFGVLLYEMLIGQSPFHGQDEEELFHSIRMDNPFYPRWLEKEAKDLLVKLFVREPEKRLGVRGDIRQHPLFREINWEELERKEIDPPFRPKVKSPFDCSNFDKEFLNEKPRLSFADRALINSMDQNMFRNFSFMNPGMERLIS

[12] = target: panel of more than 300 wild-type and mutant kinases (313 kinase panel) (Homo sapiens, UniProt Q9NYA1); conditions: kinase SPHK1; 1 μM
[13] = target: panel of more than 300 wild-type and mutant kinases (313 kinase panel) (Homo sapiens, UniProt Q9UM73, F1174L); conditions: kinase ALK(F1174L); 1 μM compound
[14] = kinase KIT(V560G), compound at 1 μM

Chain of panel of more than 300 wild-type and mutant kinases (313 kinase panel) (Homo sapiens, UniProt P10721, V560G) (P10721 26-976 V560G): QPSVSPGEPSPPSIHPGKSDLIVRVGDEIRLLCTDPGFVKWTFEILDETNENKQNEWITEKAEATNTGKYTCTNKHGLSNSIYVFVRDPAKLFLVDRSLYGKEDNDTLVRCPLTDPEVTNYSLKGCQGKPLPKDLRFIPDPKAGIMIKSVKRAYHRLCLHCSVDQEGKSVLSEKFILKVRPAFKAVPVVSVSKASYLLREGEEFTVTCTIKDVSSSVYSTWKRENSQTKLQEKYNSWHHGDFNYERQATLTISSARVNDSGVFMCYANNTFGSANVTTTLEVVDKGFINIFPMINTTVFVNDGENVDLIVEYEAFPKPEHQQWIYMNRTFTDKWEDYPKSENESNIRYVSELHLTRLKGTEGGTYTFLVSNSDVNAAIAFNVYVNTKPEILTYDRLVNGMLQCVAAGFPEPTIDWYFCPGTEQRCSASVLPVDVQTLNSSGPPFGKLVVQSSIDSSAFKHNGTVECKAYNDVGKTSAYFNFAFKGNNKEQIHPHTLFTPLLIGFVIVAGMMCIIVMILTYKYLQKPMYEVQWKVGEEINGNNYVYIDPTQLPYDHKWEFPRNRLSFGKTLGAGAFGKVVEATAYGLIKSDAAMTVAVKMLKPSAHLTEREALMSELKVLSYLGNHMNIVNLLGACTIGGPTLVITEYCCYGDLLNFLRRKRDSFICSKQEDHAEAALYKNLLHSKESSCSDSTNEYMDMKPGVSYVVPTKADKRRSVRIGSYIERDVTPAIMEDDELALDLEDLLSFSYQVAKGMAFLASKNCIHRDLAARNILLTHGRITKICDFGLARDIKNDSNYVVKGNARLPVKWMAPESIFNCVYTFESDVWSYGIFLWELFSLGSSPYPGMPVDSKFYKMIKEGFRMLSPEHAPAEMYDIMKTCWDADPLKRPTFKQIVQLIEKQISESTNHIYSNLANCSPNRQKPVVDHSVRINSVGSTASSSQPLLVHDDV

| SMILES | %-inhibition of KIT(V560G) [1, 14] [%] | %-inhibition of MNK2 [2] [%] | %-inhibition, CDC2/CycB1 [3] [%] | %-inhibition of PAK1 [4] [%] | %-inhibition, CHK1 [5] [%] | %-inhibition of MAPKAPK3 [6] [%] | %-inhibition of FGFR3(K650M) [7] [%] | %-inhibition, CGK2 [8] [%] | %-inhibition of PDGFRα(T674I) ([9]; kinase PDGFRα(T674I), 1 μM) [%] | %-inhibition of p38α ([10]; kinase p38α, 1 μM) [%] | %-inhibition of PKCθ ([11]; kinase PKCθ, 1 μM) [%] | %-inhibition of SPHK1 [12] [%] | %-inhibition, ALK(F1174L) [13] [%] | %-inhibition of PDGFRα(T674I) ([9]; 1 µM) [%] | %-inhibition of p38α ([10]; 1 µM) [%] | %-inhibition of KIT(V560G) ([1]; 1 µM) [%] | %-inhibition of PKCθ ([11]; 1 µM) [%] |
| --- | --- | --- | --- | --- | --- | --- | --- | --- | --- | --- | --- | --- | --- | --- | --- | --- | --- |
| C[C@@H](Oc1cc(-c2cnn(C3CCNCC3)c2)cnc1N)c1c(Cl)ccc(F)c1Cl [crizotinib] | 0.851 | 2 | 19 | -4 | 10 | -13 | 61 | -0.915 | 95 | -2.27 | -3 | -14 | – | – | – | – | – |
| CC(C)(C)c1nc(-c2cccc(NS(=O)(=O)c3c(F)cccc3F)c2F)c(-c2ccnc(N)n2)s1 [dabrafenib] | – | – | – | – | – | -11 | 7 | -1.38 | 18 | – | – | -18 | – | – | – | – | – |
| COc1cc2c(Nc3ccc(Br)cc3F)ncnc2cc1OCC1CCN(C)CC1 [vandetanib] | – | – | -0.952 | -5.28 | 27 | -2 | – | -2.65 | 91 | 18 | -0.702 | -13 | – | – | – | – | – |
| O=S(=O)(c1cccc2cnccc12)N1CCCNCC1 [fasudil] | 0.322 | 12 | 6.46 | – | -11 | -14 | -0.618 | 46 | 21 | -7 | 13 | -15 | -4 | – | – | – | – |
| Cc1ccc(C(=O)Nc2ccc(CN3CCN(C)CC3)c(C(F)(F)F)c2)cc1C#Cc1cnc2cccnn12 [ponatinib] | – | 97 | 33 | – | 3.23 | – | 100 | 12 | 99 | 101 | 0.0638 | -20 | 5 | – | – | – | – |
| CCN(CC)CCNC(=O)c1c(C)[nH]c(/C=C2\C(=O)Nc3ccc(F)cc32)c1C [sunitinib] | – | – | – | – | – | – | 97 | – | – | – | – | – | – | – | – | – | – |
| Cc1cn(-c2cc(NC(=O)c3ccc(C)c(Nc4nccc(-c5cccnc5)n4)c3)cc(C(F)(F)F)c2)cn1 [nilotinib] | – | 2 | 1 | -159 | -15 | 2 | -21 | 12 | – | – | -3.49 | 11 | -45 | 45 | 92 | – | – |
| CS(=O)(=O)CCNCc1ccc(-c2ccc3ncnc(Nc4ccc(OCc5cccc(F)c5)c(Cl)c4)c3c2)o1 [lapatinib] | – | 2.43 | 0.355 | – | 12 | -3.64 | 1.23 | -9 | – | -3 | – | -11 | 1.61 | 18 | – | 2.33 | 0 |
| Cc1nc(Nc2ncc(C(=O)Nc3c(C)cccc3Cl)s2)cc(N2CCN(CCO)CC2)n1 [dasatinib] | – | – | 4.44 | – | – | – | – | -6 | – | 91 | – | – | – | – | – | – | – |
| Cc1ccc(Nc2nccc(N(C)c3ccc4c(C)n(C)nc4c3)n2)cc1S(N)(=O)=O [pazopanib] | – | 2.27 | 3 | -0.494 | -7 | -6 | – | -1 | – | 10 | -3.47 | 1.19 | 26 | – | – | – | – |
| N#CC[C@H](C1CCCC1)n1cc(-c2ncnc3[nH]ccc23)cn1 [ruxolitinib] | -7 | 54 | 0.106 | -5.62 | 4.66 | -13 | 16 | – | 17 | -2.16 | -1.47 | -15 | – | – | – | – | – |
| COc1cc(Nc2c(C#N)cnc3cc(OCCCN4CCN(C)CC4)c(OC)cc23)c(Cl)cc1Cl [bosutinib] | 7 | -2 | -1.38 | – | 83 | -12 | – | -0.53 | 57 | 9 | 84 | -23 | 71 | – | – | – | – |
| CN(C)C/C=C/C(=O)Nc1cc2c(Nc3ccc(F)c(Cl)c3)ncnc2cc1O[C@H]1CCOC1 [afatinib] | – | – | – | – | – | – | – | – | – | – | – | -2 | – | – | – | – | – |
